Patent US10493170B1, “Targeted graphene quantum dot-based theranostics” (University of South Florida, priority 2014, dated 2019)

Assays:
Type in all cases: cell-based
[1] = tested on: normal ovary epithelial cells T80; experiment: MTT cell viability assay, T80; conditions: T80, 24 h, concentration equivalent to Dox, read-out: IC50 (relative cellular viability)
Method: (§1) Cells were treated with various concentrations of GQDs-FA-Dox (0, 0.25, 0.5, 1, 2, and 4 μM equivalent to Dox) for 24 h and 48 h, respectively. Cell viability was determined by the MTT assay. In brief, the cells were treated with GQDs-FA-Dox conjugates, 10 μL MTT (5 mg/ml) was added into each well and incubated for 4 h, culture medium was removed and 100 μL DMSO was added to dissolve formazan crystals. Absorbance was read at 560 nm for formazan and 670 nm for background by Synergy H4 hybrid multi-mode microplate reader (BioTek).
(§2) To determine the effective dosage of GQDs-FA-Dox on ovarian cancer cells and normal cells, a dose-course MTT assay was done on Ovcar3 cells. The cells were treated with a series of concentration of DOX, GQDs-FA-Dox, and GQDs-Dox for 0.01 to 4 μM (equivalent to Dox concentration) for 24 h.

[2] = tested on: ovarian cells Ovcar3; experiment: MTT cell viability assay, Ovcar3; conditions: Homo sapiens, OVCAR-3; Ovcar3, 24 h, concentration equivalent to Dox; read-out: IC50 (relative cellular viability)
Method: as §1, §2

[3] = tested on: ovarian cancer cells ovcar3; experiment: Colony formation assay, ovcar3
Method: Colony formation assays were performed with ovarian cancer cells ovcar3 and ovarian surface epithelial cells T80 to examine the impact of DOX, […]-Dox, or GQDs-Dox on the cell growth inhibition.

| IC50 [2] [µM] | Compound | IC50 [1] [µM] | colony growth ([3]; ovcar3) | effect of folic acid on ovcar3 cells in response of GQDs-FA-DOX ([3]; ovcar3, colony formation, co-treatment with GQDs-FA-DOX) |
| --- | --- | --- | --- | --- |
| 0.93 | COc1cccc2c1C(=O)c1c(O)c3c(c(O)c1C2=O)C[C@@](O)(C(=O)CO)C[C@@H]3O[C@H]1C[C@H](N)[C@H](O)[C@H](C)O1 [DOX, Doxorubicin] | 0.86 | strongly inhibited |  |
|  | Nc1nc2ncc(CNc3ccc(C(=O)N[C@@H](CCC(=O)O)C(=O)O)cc3)nc2c(=O)[nH]1 [Folic acid, folic acid] |  |  | protective effect |
